Results as given in article PMC7203245, “Lacosamide intake during pregnancy increases the incidence of foetal malformations and symptoms associated with schizophrenia in the offspring of mice” (Scientific Reports, 2020).
Marks after values point to notes of the source that are not given here.

Columns and labels:
developing embryos = experiment: Embryo development at E14.5 after daily LCM administration to dams (litters, resorptions, litter size, malformations); type: in vivo, mice; conditions: for CR length (cm): crown-rump
Procedure: Thus, we used 10, 40, 80 and 120 mg/kg in mice, which corresponded to 56.7, 227, 454 and 681 mg/day in humans, considering an average weight of human to be 70 kg and that of mice to be 30 gr[52],[55]. Controls were administered the vehicle alone: saline solution 0.9% w/v. […] A total of 32 dams were initially treated daily, two days before mating and until the 14th day post-coitus. […] In the breastfeeding period, females were not under treatment given that a person will bottle feed the baby if they were on medication.
(§1) Maternal weights were assessed at the end of the treatment periods. After 14.5 days of gestation (embryonic day14.5, E14.5), blood was extracted from the orbital sinus of the pregnant dams under anaesthesia (70 mg/kg Thiobarbital: Braun Medical S.A. Spain), as described previously[56] and sacrificed by neck dislocation immediately after. Blood samples were centrifuged immediately, and the serum was collected and stored at -80 °C for further chemical analysis.
The E14.5 embryos were collected and fixed in 4% paraformaldehyde for 4 h and then kept at 4 °C in 70% ethanol. The litter size of each dam was recorded, and embryos were assessed for external malformations and photographed on a stereomicroscope (SteREO Discovery V8 + AxioCam Erc8, Zeiss, Oberkochen, Germany). The crown-rump lengths of embryos were measured in the photographs using ImageJ software (downloaded as a free software package from the public domain: http://rsb.info.nih.gov/ij/download.html) and based on the reference points described previously. Embryos were then embedded in paraffin, sectioned at 10, 7 and 5 μm, and stained with Ehrlich Haematoxylin & Eosin (H&E) for histology analysis. Representative sections were selected from at least three embryos for each condition and photographed on an Olympus (Tokyo, Japan) BX-61 photomicroscope.

adult male mice [1] = experiment: Object recognition memory; type: in vivo; conditions: 1 hour after the training session; LCM in utero
Procedure: (§2) All trials were performed by an experimenter blind to the drug treatment.
Object recognition memory. Mice were tested in a rectangular arena (55 x 40 x 40 cm) situated in a room with dim lighting and constant background noise. The object recognition protocol was described extensively elsewhere^2. Briefly, two equal objects were placed in the arena during a 15 minutes training phase and the animal’s memory of the original object was assessed by comparing the amount of time spent exploring the novel object against that for the familiar one in two sessions (of 10 minutes) performed 1 and 24h after training (for short-term and long-term memories [STM and LTM] respectively). The time spent exploring each object was recorded and the relative exploration of the novel object was expressed by a discrimination index [DI = (tnovel-tfamiliar)/(tnovel+tfamiliar)]. The criteria for exploration were based strictly on active exploration. Exploration of an object was defined as directing the nose toward the object at a distance of 1.5 cm and/or touching the object with the nose or vibrissae. Circling or sitting on the object were not considered exploratory behaviours.

[2] = LCM concentration in serum of dams by UHPLC-QTOF-MS; type: in vivo, mice; conditions: female, mouse, intraperitoneal, 24 h post-injection, 2 dams in each dose group (10-120 mg/kg), no relationship with dose
Procedure: as §1
Samples were extracted as described previously[25] with slight modifications. Briefly, embryos were rinsed with cold saline and ultrapure water, and their wet-weight was determined. They were then homogenized using a 150 T Ultrasonic homogenizer (Fisher Scientific, Spain) and 10 µL of an internal standard solution (IS: aqueous D^3-LCM IS, 5 mg mL^−1) was added to the biological samples (embryos or 50 µL of serum). […] The mixture was vortexed vigorously for 3 min and centrifuged at 13,000 g for 5 min. The supernatant was transferred to a new Eppendorf tube and evaporated to dryness in a stream of nitrogen gas. The residue was reconstituted with 50 µL of LC-MS Ultrapure water, vortexed for 20 s and centrifuged at 13,000 g for 5 min. The supernatant was transferred to a conic micro insert to be injected onto the UHPLC system.
MS spectra data were collected between m/z 50 and 1000, and MS/MS spectra were registered between 50-300 Da. […]

adult male mice [3] = experiment: Predator test; type: in vivo
Procedure: as §2
Predator test. The predator test was performed in a rectangular arena (55 x 40 x 40 cm) where a small tube was placed in a corner. The subject mouse was first placed in the area with the empty tube for 5 mins and afterwards, the tube was filled with material from a cage that housed a rat and the mice were allowed to explore the entire fear test box for 10 mins. The time spent by the mice sniffing the tube full of the rat’s material was measured with the aid of the camera fitted to the top of the box.

[4] = 10 mg/kg LCM daily i.p. to dams
[5] = 40 mg/kg LCM daily i.p. to dams
[6] = 80 mg/kg LCM daily i.p. to dams
[7] = 120 mg/kg LCM daily i.p. to dams
[8] = High doses (80 or 120 mg/kg LCM daily i.p. to dams)
[9] = High doses (80 or 120 mg/kg LCM daily i.p. to dams), mean ± S.E.M., p < 0.05
[10] = Low doses (10 or 40 mg/kg LCM daily i.p. to dams)

## COC[C@@H](NC(C)=O)C(=O)NCc1ccccc1 [LCM, R-2-acetamido-N-benzyl-3-methoxypropionamide]
Developing embryos; [4]
  Emb (no.): 117 no.
  Lost Litter (no.): 0 no.
  Malformation (%): 4.3%
  Resorpt (%): 4%
  CR length (cm): 1.18 cm
Developing embryos; [5]
  Emb (no.): 67 no.
  Lost Litter (no.): 0 no.
  Malformation (%): 7.4%
  Resorpt (%): 1.5%
  CR length (cm): 1.09 cm
Developing embryos; [6]
  Emb (no.): 41 no.
  Lost Litter (no.): 1 no.
  Malformation (%): 12.2%
  Resorpt (%): 0%
  CR length (cm): 1.03 cm
Developing embryos; [7]
  Emb (no.): 73 no.
  Lost Litter (no.): 1 no.
  Malformation (%): 2.7%
  Resorpt (%): 2.5%
  CR length (cm): 1.08 cm
Developing embryos; [8]
  Emb (no.): 114 no.
  Lost Litter (no.): 2 no.
  Malformation (%): 6.1%
  Resorpt (%): 1.75%
Developing embryos; [9]
  CR length (cm): 1.06 ± 0.08^b cm
  Emb/dam: 9.5 ± 0.4^b
Developing embryos; [10]
  Emb (no.): 184 no.
  Lost Litter (no.): 0 no.
  Malformation (%): 5.4%
  Resorpt (%): 3.2%
Developing embryos; Low doses (10 or 40 mg/kg LCM daily i.p. to dams), mean ± S.E.M.
  CR length (cm): 1.1 ± 0.1 cm
Developing embryos; high doses of LCM (80 or 120 mg/kg), p = 0.02
  number of embryos/litter: 9.5 ± 0.4 embryo/litter
Developing embryos; low doses of LCM (10 or 40 mg/kg)
  number of embryos/litter: 12.2 ± 0.1 embryos/litter
Adult male mice [1]
  short-term memory in object recognition: no effects
[2]
  concentration at 24 h: 5 to 133 ng/mL
Adult male mice [3]; 40 mg/kg in utero
  time sniffing the predator's material: 22.85 ± 4.07%
Adult male mice [3]; 120 mg/kg in utero
  time sniffing the predator's material: 22.91 ± 2.08%
